Assay results taken from patent publication US20110039721A1, “METHOD FOR PREDICTION ABOUT CARCINOGENICITY OF SUBSTANCE IN RODENT” (Chemicals Evaluation and Research Institute, priority 2007, published 2011).

How the values were obtained:
[1] = tested on: mRNA expressed from the genes (A) to (D) in rat liver; experiment: Behavior of genes (mRNA expression level, oligo-DNA microarray) in rat liver after 28-day oral administration; type: in vivo
Outline: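 Liver mRNA measured by oligo-DNA microarray after 28 days of once-daily oral gavage in 5-week-old male F344 rats (n=4 per group), with vehicle controls given equal solvent volume. Significance threshold: 1.5-fold up or down versus control, with changes opposite in direction to other carcinogens counted as not significant.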

liver = conditions: classification Cr+/Cr−; cited from earlier work
rodent = conditions: classification C+/C−; cited from earlier work
[2] = classification M+/M−; cited from earlier work

CC(=O)Nc1cccc2c1-c1ccccc1C2 [TS061, 4-Acetylaminofluorene]
+: Behavior of gene caused by administration of chemical substance ([1]; Gene No. 1163, Rn.11766, group (C)) | Behavior of gene caused by administration of chemical substance ([1]; Gene No. 2026, Rn.167075, group (A)) | Behavior of gene caused by administration of chemical substance ([1]; Gene No. 4846, Rn.144554, group (A)) | Behavior of gene caused by administration of chemical substance ([1]; Gene No. 6182, Rn.5834, group (A))
−: Behavior of gene caused by administration of chemical substance ([1]; Gene No. 154, Rn.185941, group (C)) | Behavior of gene caused by administration of chemical substance ([1]; Gene No. 533, Rn.106184, group (C)) | Behavior of gene caused by administration of chemical substance ([1]; Gene No. 725, Rn.108075, group (C)) | Behavior of gene caused by administration of chemical substance ([1]; Gene No. 813, Rn.201760, group (C)) | Behavior of gene caused by administration of chemical substance ([1]; Gene No. 893, Rn.164817, group (C)) | Behavior of gene caused by administration of chemical substance ([1]; Gene No. 1119, Rn.9757, group (C)) | Behavior of gene caused by administration of chemical substance ([1]; Gene No. 1131, Rn.144946, group (C)) | Behavior of gene caused by administration of chemical substance ([1]; Gene No. 1334, Rn.120914, group (C)) | Behavior of gene caused by administration of chemical substance ([1]; Gene No. 1494, Rn.1430, group (B)) | Behavior of gene caused by administration of chemical substance ([1]; Gene No. 1562, Rn.14744, group (C)) | Behavior of gene caused by administration of chemical substance ([1]; Gene No. 1741, Rn.1647, group (C)) | Behavior of gene caused by administration of chemical substance ([1]; Gene No. 1993, Rn.18728, group (C)) | Behavior of gene caused by administration of chemical substance ([1]; Gene No. 2045, Rn.19329, group (B)) | Behavior of gene caused by administration of chemical substance ([1]; Gene No. 2203, Rn.21240, group (B)) | Behavior of gene caused by administration of chemical substance ([1]; Gene No. 2494, Rn.23969, group (C)) | Behavior of gene caused by administration of chemical substance ([1]; Gene No. 2546, Rn.24561, group (C)) | Behavior of gene caused by administration of chemical substance ([1]; Gene No. 3776, Rn.43232, group (C)) | Behavior of gene caused by administration of chemical substance ([1]; Gene No. 3929, Rn.4620, group (C)) | Behavior of gene caused by administration of chemical substance ([1]; Gene No. 4095, Rn.119024, group (C)) | Behavior of gene caused by administration of chemical substance ([1]; Gene No. 4218, Rn.167075, group (A)) | Behavior of gene caused by administration of chemical substance ([1]; Gene No. 4973, Rn.118529, group (C)) | Behavior of gene caused by administration of chemical substance ([1]; Gene No. 5600, Rn.9836, group (A)) | Behavior of gene caused by administration of chemical substance ([1]; Gene No. 5634, Rn.9862, group (C)) | Behavior of gene caused by administration of chemical substance ([1]; Gene No. 5726, Rn.9939, group (D)) | Behavior of gene caused by administration of chemical substance ([1]; Gene No. 5878, Rn.143213, group (C)) | Behavior of gene caused by administration of chemical substance ([1]; Gene No. 6026, Rn.167685, group (C)) | Behavior of gene caused by administration of chemical substance ([1]; Gene No. 6303, Rn.123063, group (C)) | Behavior of gene caused by administration of chemical substance ([1]; Gene No. 6620, Rn.120914, group (C)) | Behavior of gene caused by administration of chemical substance ([1]; Gene No. 6742, Rn.9779, group (C))
M+: Mutagenicity by Ames test [2]
C−: Carcinogenicity (rodent)
Cr−: Liver carcinogenicity (liver)
